These results are taken from patent US10214546B2, “Btk inhibitors” (MERCK SHARP & DOHME CORP., priority 2014, dated 2019).

For assay [1], the system named is adenosine uptake into HeLa cells. The assay can be described thus: [3H]Adenosine uptake assay in HeLa cells. The assay is classed as cell-based. Particulars: [3H]adenosine accumulation in HeLa cells, compound range 10 μM to 0.032 nM, read-out: ADU inhibition IC50. In a few lines: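 HeLa cells in HBSS + 5% FBS were preincubated 30 min at ambient temperature with compound (ten-point 1:3 series, 10 µM–[…] final), then given [3H]adenosine (added as a 500 nM solution) for 60 min. Cell-associated label was read by scintillating-plate proximity counting; IC50 from 4-parameter fit of cps versus log concentration.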

In assay [2] the target is BTK enzyme (recombinant full-length BTK, hBTK) (Homo sapiens (Human), UniProt Q06187). The assay can be described thus: BTK enzymatic activity LANCE TR-FRET assay. The assay is classed as biochemical. Particulars: 50 pM hBTK, 25 μM ATP, 2 μM biotin-A5-peptide; compound range 1 μM to 0.017 nM; read-out: BTK binding IC50.

Read-outs that look alike come from different tables or passages of the source.

Sequence of BTK enzyme (recombinant full-length BTK, hBTK) (Q06187 whole entry): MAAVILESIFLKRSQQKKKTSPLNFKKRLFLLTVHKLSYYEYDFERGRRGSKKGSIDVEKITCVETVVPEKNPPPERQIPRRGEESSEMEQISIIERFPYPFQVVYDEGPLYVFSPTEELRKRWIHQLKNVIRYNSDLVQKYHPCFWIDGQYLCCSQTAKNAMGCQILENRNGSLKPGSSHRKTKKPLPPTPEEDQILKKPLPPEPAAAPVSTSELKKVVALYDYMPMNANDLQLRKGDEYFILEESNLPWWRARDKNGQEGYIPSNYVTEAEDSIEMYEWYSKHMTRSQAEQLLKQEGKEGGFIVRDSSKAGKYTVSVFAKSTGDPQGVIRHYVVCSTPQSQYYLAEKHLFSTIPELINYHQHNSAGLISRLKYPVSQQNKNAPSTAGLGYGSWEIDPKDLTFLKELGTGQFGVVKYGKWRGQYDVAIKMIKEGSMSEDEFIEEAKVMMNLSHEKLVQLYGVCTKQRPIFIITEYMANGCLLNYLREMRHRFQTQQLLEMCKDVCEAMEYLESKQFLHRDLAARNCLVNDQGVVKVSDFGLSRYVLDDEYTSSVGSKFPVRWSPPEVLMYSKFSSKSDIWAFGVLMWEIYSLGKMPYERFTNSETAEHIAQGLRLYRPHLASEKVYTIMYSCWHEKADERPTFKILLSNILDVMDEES

As for `CC1(C)C[C@@H]2CC[C@@H](c3nc(-c4ccc([C@@](C)(O)c5cccc(C(F)(F)F)c5)cc4)c4c(N)ncc(F)n34)CN2C1=O` [Example 198, (6R,8aS)-6-[8-amino-5-fluoro-1-(4-{(1R)-1-hydroxy-1-[3-(trifluoromethyl)phenyl]ethyl}phenyl)imidazo [1,5-a]pyrazin-3-yl]-2,2-dimethylhexahydroindolizin-3(2H)-one], the IC50 (commonly the concentration that inhibits the measured activity by half) in assay [1] (Homo sapiens, HeLa) amounted to 6.85 µM; in assay [2] it was 7.1 nM.
For `C[C@@](O)(c1ccc(-c2nc([C@@H]3CC[C@H]4CCC(=O)N4C3)n3c(F)cnc(N)c23)cc1)c1cccc(C(F)F)c1` [Example 199, (6R,8aS)-6-(8-amino-1-(4-{(1R)-1-[3-(difluoromethyl)phenyl]-1-hydroxyethyl}phenyl)-5-fluoroimidazo[1,5-a]pyrazin-3-yl]hexahydroindolizin-3(2H)-one], the IC50 in assay [1] (Homo sapiens, HeLa) was found to be 4.5 µM; in assay [2], 0.66 nM.
Take `CC(O)(c1cccc(C(F)F)c1)c1ccc(-c2nc([C@@H]3CC[C@@H]4N(C3)C(=O)CC4(C)C)n3ccnc(N)c23)c(F)c1` (stereo partly drawn) [Example 200, (6R,8aS)-6-[8-amino-1-(4-{1-[3-(difluoromethyl)phenyl]-1-hydroxyethyl}-2-fluorophenyl)imidazo[1,5-a]pyrazin-3-yl]-1,1-dimethylhexahydroindolizin-3(2H)-one]: the IC50 stood at 0.23 µM in assay [1] and 53.8 nM in assay [2].
`CC1(C)C[C@@H]2CC[C@@H](c3nc(-c4ccc(C(C)(O)c5cccc(C(F)F)c5)cc4F)c4c(N)nccn34)CN2C1=O` (stereo partly drawn) [Example 201, (6R,8aS)-6-[8-amino-1-(4-{1-[3-(difluoromethyl)phenyl]-1-hydroxyethyl}-2-fluorophenyl)imidazo[1,5-a]pyrazin-3-yl]-2,2-dimethylhexahydroindolizin-3(2H)-one]: the IC50 amounted to 0.418 µM in assay [1] and 42.2 nM in assay [2].
The matching figures for `CC(O)(c1cccc(C(F)F)c1)c1ccc(-c2nc([C@@H]3CC[C@@H]4N(C3)C(=O)CC4(C)C)n3ccnc(N)c23)c(F)c1` (stereo partly drawn) [Example 202, (6R,8aS)-6-(8-amino-1-(4-{1-[3-(difluoromethyl)phenyl]-1-hydroxyethyl}-2-fluorophenyl)imidazo[1,5-a]pyrazin-3-yl]-1,1-dimethylhexahydroindolizin-3(2H)-one]: 1.92 µM and 0.16 nM.
The corresponding values for `CC1(C)C[C@@H]2CC[C@@H](c3nc(-c4ccc(C(C)(O)c5cccc(C(F)F)c5)cc4F)c4c(N)nccn34)CN2C1=O` (stereo partly drawn) [Example 203, (6R,8aS)-6-[8-amino-1-(4-{1-[3-(difluoromethyl)phenyl]-1-hydroxyethyl}-2-fluorophenyl)imidazo[1,5-a]pyrazin-3-yl]-2,2-dimethylhexahydroindolizin-3(2H)-one] are 2.27 µM and 0.43 nM.
Turning to `CCOc1cc([C@@](C)(O)c2cccc(C(F)(F)F)c2)ccc1-c1nc([C@@H]2CC[C@H]3CCC(=O)N3C2)n2c(F)cnc(N)c12` [Example 204, (6R,8aS)-6-[8-amino-1-(2-ethoxy-4-{(1S)-1-hydroxy-1-[3-(trifluoromethyl)phenyl]ethyl}phenyl)-5-fluoroimidazo[1,5-a]pyrazin-3-yl]hexahydroindolizin-3(2H)-one], the IC50 turned out to be 5.87 µM in assay [1] (Homo sapiens, HeLa) and 2.2 nM in assay [2].
Take `COc1cc(C(C)(O)c2cccc(C(F)(F)F)c2)ccc1-c1nc([C@@H]2CC[C@@H]3N(C2)C(=O)CC3(C)C)n2ccnc(N)c12` (stereo partly drawn) [Example 205, (6R,8aS)-6-[8-amino-1-(4-{1-hydroxy-1-[3-(trifluoromethyl)phenyl]ethyl}-2-methoxyphenyl)imidazo [1,5-a]pyrazin-3-yl]-1,1-dimethylhexahydroindolizin-3(2H)-one]: the IC50 in assay [1] worked out at 3.5 µM; in assay [2] it was 2 nM.
As to `COc1cc([C@@](C)(O)c2cccc(C(F)(F)F)c2)ccc1-c1nc([C@@H]2CC[C@H]3CC(C)(C)C(=O)N3C2)n2ccnc(N)c12` [Example 206, (6R,8aS)-6-[8-amino-1-(4-{(1S)-1-hydroxy-1-[3-(trifluoromethyl)phenyl]ethyl}-2-methoxyphenyl)imidazo [1,5-a]pyrazin-3-yl]-2,2-dimethylhexahydroindolizin-3(2H)-one], the IC50 in assay [1] (Homo sapiens, HeLa) is 5.46 µM; in assay [2], 3.8 nM.
Regarding `CC(O)(c1cccc(C(F)F)c1)c1ccc(-c2nc([C@@H]3CC[C@H]4CCC(=O)N4C3)n3c(F)cnc(N)c23)c(F)c1` (stereo partly drawn) [Example 207, (6R,8aS)-6-[8-amino-1-(4-{1-[3-(difluoromethyl)phenyl]-1-hydroxyethyl}-2-fluorophenyl)-5-fluoroimidazo[1,5-a]pyrazin-3-yl]hexahydroindolizin-3(2H)-one], the IC50 was determined as 0.933 µM in assay [1] and 459 nM in assay [2].
The corresponding values for `CC(O)(c1cccc(C(F)F)c1)c1ccc(-c2nc([C@@H]3CC[C@H]4CCC(=O)N4C3)n3c(F)cnc(N)c23)c(F)c1` (stereo partly drawn) [Example 208, (6R,8aS)-6-(8-amino-1-(4-{1-[3-(difluoromethyl)phenyl]-1-hydroxyethyl}-2-fluorophenyl)-5-fluoroimidazo[1,5-a]pyrazin-3-yl]hexahydroindolizin-3(2H)-one] are 5.41 µM and 1.6 nM.
In the case of `COc1cc(C(C)(O)c2cccc(C(F)(F)F)c2)ccc1-c1nc([C@@H]2CC[C@@H]3N(C2)C(=O)CC3(C)C)n2ccnc(N)c12` (stereo partly drawn) [Example 209, (6R,8aS)-6-[8-amino-1-(4-{1-hydroxy-1-[3-(trifluoromethyl)phenyl]ethyl}-2-methoxyphenyl)imidazo [1,5-a]pyrazin-3-yl]-1,1-dimethylhexahydroindolizin-3(2H)-one], the IC50 was 1.12 µM in assay [1] and 26 nM in assay [2].
The matching figures for `COc1cc(C(O)(c2cccc(C(F)F)c2)C(F)(F)F)ccc1-c1nc([C@@H]2CC[C@H]3CCC(=O)N3C2)n2ccnc(N)c12` (stereo partly drawn) [Example 210, (6R,8aS)-6-[8-amino-1-(4-{1-[3-(difluoromethyl)phenyl]-2,2,2-trifluoro-1-hydroxyethyl}-2-methoxyphenyl)imidazo [1,5-a]pyrazin-3-yl]hexahydroindolizin-3(2H)-one]: 2.7 µM and 67 nM.
The matching figures for `COc1cc(C(O)(c2cccc(C(F)F)c2)C(F)(F)F)ccc1-c1nc([C@@H]2CC[C@H]3CCC(=O)N3C2)n2ccnc(N)c12` (stereo partly drawn) [Example 211, (6R,8aS)-6-[8-amino-1-(4-{1-[3-(difluoromethyl)phenyl]-2,2,2-trifluoro-1-hydroxyethyl}-2-methoxyphenyl)imidazo [1,5-a]pyrazin-3-yl]hexahydroindolizin-3(2H)-one]: 7.03 µM and 0.6 nM.
On to `CCOc1cc([C@@](C)(O)c2cccc(C(F)(F)F)c2)cc(F)c1-c1nc([C@@H]2CC[C@H]3CCC(=O)N3C2)n2ccnc(N)c12` [Example 212, (6R,8aS)-6-[8-amino-1-(2-ethoxy-6-fluoro-4-{(1S)-1-hydroxy-1-[3-(trifluoromethyl)phenyl]ethyl}phenyl)imidazo [1,5-a]pyrazin-3-yl]hexahydroindolizin-3(2H)-one], for which the IC50 was 3.52 µM in assay [1] (Homo sapiens, HeLa) and 329 nM in assay [2].
The matching figures for `CCOc1cc([C@](C)(O)c2cccc(C(F)(F)F)c2)cc(F)c1-c1nc([C@@H]2CC[C@H]3CCC(=O)N3C2)n2ccnc(N)c12` [Example 213, (6R,8aS)-6-[8-amino-1-(2-ethoxy-6-fluoro-4-{(1R)-1-hydroxy-1-[3-(trifluoromethyl)phenyl]ethyl}phenyl)imidazo [1,5-a]pyrazin-3-yl]hexahydroindolizin-3(2H)-one]: 6 µM and 0.63 nM.
The matching figures for `CCOc1cc(C(O)(c2cccc(C(F)(F)F)c2)C(F)(F)F)ccc1-c1nc([C@@H]2CC[C@H]3CCC(=O)N3C2)n2ccnc(N)c12` (stereo partly drawn) [Example 214, (6R,8aS)-6-[8-amino-1-(2-ethoxy-4-{2,2,2-trifluoro-1-hydroxy-1-[3-(trifluoromethyl)phenyl]ethyl}phenyl)imidazo [1,5-a]pyrazin-3-yl]hexahydroindolizin-3(2H)-one]: 3.11 µM and 4.1 nM.
As for “(6R.8aS)-6-[8-amino-1- (4-{(1R)-1-[3- (difluoromethyl)phenyl]-1- hydroxyethyl}phenyl)- 5-fluoroimidazo[1,5- a]pyrazin-3-yl]-2,2- dimethylhexahydroindolizin- 3(2H)-one [Example 178]”, the IC50 in assay [1] amounted to 4.61 µM; in assay [2], 1.3 nM.
